In patent EP0726261A1, “Herbidical 1,2,4 thiadiazoles” (American Cyanamid Company, priority 1995, dated 1996):

Experiments:
Type in all cases: in vivo
[1] = tested on: Glycine max; assay: Herbicidal activity, postemergence test (Example 66); conditions: post; 1000 g/ha; assessed visually twenty days after spraying
Procedure: (§1) To evaluate their herbicidal activity, compounds according to the invention are tested using a representative range of plants: ZEAMX Zea mays ORYSA Oryza sativa GLXMA Glycine max BEAVA Beta vulgaris LIUUT Linum usitatissimum AVEFA Avena fatua ECHCG Echinochloa crus-galli SINAL Sinapsis alba
(§2) The tests fall into two categories, preemergence and postemergence. The preemergence tests involve spraying a liquid formulation of the compound onto the soil in which the seeds of the plant species mentioned above have recently been sown. The postemergence tests involve spraying a liquid formulation of the compound onto seedling plants of the above species.
(§3) The soil used in the tests is a prepared horticultural loam.
(§4) The formulations used in the tests are prepared from solutions of the test compounds in acetone containing 0.4% by weight of an alkylphenol/ethylene oxide condensate available under the trademark TRITON X-155. These acetone solutions are diluted with water and the resulting formulations applied at dosage levels corresponding to 1000 g of active material per hectare in a volume equivalent to 900 litres per hectare.
(§5) In the preemergence tests, untreated sown soil, and in the postemergence tests, untreated soil bearing seedling plants, are used as controls.
(§6) The herbicidal effects of the test compounds are assessed visually twenty days after spraying the foliage and the soil and are recorded on a 0-9 scale. A rating of 0 indicates growth as untreated control, a rating of 9 indicates death. An increase of 1 unit on the linear scale approximates to an 11% increase in the level of effect.

[2] = tested on: Glycine max; assay: Herbicidal activity, preemergence test (Example 66); design: key: A rating of 0 indicates growth as untreated control; a rating of 9 indicates death; conditions: pre; 1000 g/ha; assessed visually twenty days after spraying
Procedure: as §1, §2, §3, §4, §5, §6

[3] = tested on: Zea mays; assay: as above; design: key: A rating of 0 indicates growth as untreated control; a rating of 9 indicates death; conditions: pre; 1000 g/ha; assessed visually twenty days after spraying
Procedure: as §1, §2, §3, §4, §5, §6

[4] = tested on: Sinapsis alba; assay: as above; design: key: A rating of 0 indicates growth as untreated control; a rating of 9 indicates death; conditions: pre; 1000 g/ha; assessed visually twenty days after spraying
Procedure: as §1, §2, §3, §4, §5, §6

[5] = tested on: Avena fatua; assay: as above; design: key: A rating of 0 indicates growth as untreated control; a rating of 9 indicates death; conditions: pre; 1000 g/ha; assessed visually twenty days after spraying
Procedure: as §1, §2, §3, §4, §5, §6

[6] = tested on: Oryza sativa; assay: as above; design: key: A rating of 0 indicates growth as untreated control; a rating of 9 indicates death; conditions: pre; 1000 g/ha; assessed visually twenty days after spraying
Procedure: as §1, §2, §3, §4, §5, §6

[7] = tested on: Linum usitatissimum; assay: as above; design: key: A rating of 0 indicates growth as untreated control; a rating of 9 indicates death; conditions: pre; 1000 g/ha; assessed visually twenty days after spraying
Procedure: as §1, §2, §3, §4, §5, §6

[8] = tested on: Echinochloa crus-galli; assay: as above; design: key: A rating of 0 indicates growth as untreated control; a rating of 9 indicates death; conditions: pre; 1000 g/ha; assessed visually twenty days after spraying
Procedure: as §1, §2, §3, §4, §5, §6

[9] = tested on: Beta vulgaris; assay: as above; design: key: A rating of 0 indicates growth as untreated control; a rating of 9 indicates death; conditions: pre; 1000 g/ha; assessed visually twenty days after spraying
Procedure: as §1, §2, §3, §4, §5, §6

[10] = tested on: Zea mays; assay: Herbicidal activity, postemergence test (Example 66); design: key: A rating of 0 indicates growth as untreated control; a rating of 9 indicates death; conditions: post; 1000 g/ha; assessed visually twenty days after spraying
Procedure: as §1, §2, §3, §4, §5, §6

[11] = tested on: Sinapsis alba; assay: as above; design: key: A rating of 0 indicates growth as untreated control; a rating of 9 indicates death; conditions: post; 1000 g/ha; assessed visually twenty days after spraying
Procedure: as §1, §2, §3, §4, §5, §6

[12] = tested on: Avena fatua; assay: as above; design: key: A rating of 0 indicates growth as untreated control; a rating of 9 indicates death; conditions: post; 1000 g/ha; assessed visually twenty days after spraying
Procedure: as §1, §2, §3, §4, §5, §6

[13] = tested on: Oryza sativa; assay: as above; design: key: A rating of 0 indicates growth as untreated control; a rating of 9 indicates death; conditions: post; 1000 g/ha; assessed visually twenty days after spraying
Procedure: as §1, §2, §3, §4, §5, §6

[14] = tested on: Linum usitatissimum; assay: as above; design: key: A rating of 0 indicates growth as untreated control; a rating of 9 indicates death; conditions: post; 1000 g/ha; assessed visually twenty days after spraying
Procedure: as §1, §2, §3, §4, §5, §6

[15] = tested on: Echinochloa crus-galli; assay: as above; design: key: A rating of 0 indicates growth as untreated control; a rating of 9 indicates death; conditions: post; 1000 g/ha; assessed visually twenty days after spraying
Procedure: as §1, §2, §3, §4, §5, §6

[16] = tested on: Beta vulgaris; assay: as above; design: key: A rating of 0 indicates growth as untreated control; a rating of 9 indicates death; conditions: post; 1000 g/ha; assessed visually twenty days after spraying
Procedure: as §1, §2, §3, §4, §5, §6

[17] = tested on: Abutilon theophrasti; assay: Postemergence herbicidal activity (Example 67); conditions: pos, 800 g/ha
In short: (§7)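 Rate: 800g/ha, sprayed postemergence in 400 L/ha onto seedlings aged 3-6 weeks. Formulation was acetone/0.5% TRITON X-155 diluted in water. Readout: visual rating, 10-21 days after treatment.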

[18] = tested on: Amaranthus retroflexus; assay: Postemergence herbicidal activity (Example 67); conditions: pos, 800 g/ha
In short: as §7

[19] = tested on: Zea mays; assay: Postemergence herbicidal activity (Example 67); conditions: pos, 800 g/ha
In short: as §7

[20] = tested on: Alopecurus myosuroides; assay: Postemergence herbicidal activity (Example 67); conditions: pos, 800 g/ha
In short: as §7

[21] = tested on: Ipomoea hederacea; assay: Postemergence herbicidal activity (Example 67); conditions: pos, 800 g/ha
In short: as §7

[22] = tested on: Hordeum vulgare; assay: Postemergence herbicidal activity (Example 67); conditions: pos, 800 g/ha
In short: as §7

[23] = tested on: Veronica persica; assay: Postemergence herbicidal activity (Example 67); conditions: pos, 800 g/ha
In short: as §7

[24] = tested on: Setaria viridis; assay: Postemergence herbicidal activity (Example 67); conditions: pos, 800 g/ha
In short: as §7

[25] = tested on: Helianthus annuus; assay: Postemergence herbicidal activity (Example 67); conditions: pos, 800 g/ha
In short: as §7

[26] = tested on: Galium aparine; assay: Postemergence herbicidal activity (Example 67); conditions: pos, 800 g/ha
In short: as §7

[27] = tested on: Chenopodium album; assay: Postemergence herbicidal activity (Example 67); conditions: pos, 800 g/ha
In short: as §7

[28] = tested on: Triticum aestivum; assay: Postemergence herbicidal activity (Example 67); conditions: pos, 800 g/ha
In short: as §7

[29] = tested on: Hordeum vulgare; assay: Preemergence herbicidal activity (Example 67); conditions: pre, 800 g/ha
In short: (§8)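 At a rate of 800g/ha, an aqueous-diluted acetone solution of compound with 0.5% nonionic alkylphenol/ethylene oxide surfactant is applied to the soil of the cups. Greenhouse-held cups are scored on a rating system at about 1-3 weeks.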

[30] = tested on: Setaria viridis; assay: Preemergence herbicidal activity (Example 67); conditions: pre, 800 g/ha
In short: as §8

[31] = tested on: Triticum aestivum; assay: Preemergence herbicidal activity (Example 67); conditions: pre, 800 g/ha
In short: as §8

[32] = tested on: Alopecurus myosuroides; assay: Preemergence herbicidal activity (Example 67); conditions: pre, 800 g/ha
In short: as §8

[33] = tested on: Abutilon theophrasti; assay: Preemergence herbicidal activity (Example 67); conditions: pre, 800 g/ha
In short: as §8

[34] = tested on: Amaranthus retroflexus; assay: Preemergence herbicidal activity (Example 67); conditions: pre, 800 g/ha
In short: as §8

[35] = tested on: Zea mays; assay: Preemergence herbicidal activity (Example 67); conditions: pre, 800 g/ha
In short: as §8

[36] = tested on: Ipomoea hederacea; assay: Preemergence herbicidal activity (Example 67); conditions: pre, 800 g/ha
In short: as §8

[37] = tested on: Veronica persica; assay: Preemergence herbicidal activity (Example 67); conditions: pre, 800 g/ha
In short: as §8

[38] = tested on: Helianthus annuus; assay: Preemergence herbicidal activity (Example 67); conditions: pre, 800 g/ha
In short: as §8

[39] = tested on: Galium aparine; assay: Preemergence herbicidal activity (Example 67); conditions: pre, 800 g/ha
In short: as §8

[40] = tested on: Chenopodium album; assay: Preemergence herbicidal activity (Example 67); conditions: pre, 800 g/ha
In short: as §8

CC(NC(=O)c1nc(-c2cccc(C(F)(F)F)c2)ns1)c1cccs1 (racemic) [Example 21, (R/S)-3-(3-Trifluoromethylphenyl)-[1,2,4]thiadiazole-5-carboxylic acid, [1-(2-thienyl)ethyl]amide]
herbicidal effects on a 0-9 scale, GLXMA [1]: 7 | herbicidal effects on a 0-9 scale, GLXMA [2]: 0 | herbicidal effects on a 0-9 scale, ZEAMX [3]: 0 | herbicidal effects on a 0-9 scale, SINAL [4]: 0 | herbicidal effects on a 0-9 scale, AVEFA [5]: 0 | herbicidal effects on a 0-9 scale, ORYSA [6]: 0 | herbicidal effects on a 0-9 scale, LIUUT [7]: 0 | herbicidal effects on a 0-9 scale, ECHCG [8]: 0 | herbicidal effects on a 0-9 scale, BEAVA [9]: 0 | herbicidal effects on a 0-9 scale, ZEAMX [10]: 0 | herbicidal effects on a 0-9 scale, SINAL [11]: 9 | herbicidal effects on a 0-9 scale, AVEFA [12]: 7 | herbicidal effects on a 0-9 scale, ORYSA [13]: 0 | herbicidal effects on a 0-9 scale, LIUUT [14]: 7 | herbicidal effects on a 0-9 scale, ECHCG [15]: 8 | herbicidal effects on a 0-9 scale, BEAVA [16]: 8

CC(C)Cc1nsc(C(=O)NCc2cccs2)n1 [Example 11]
herbicidal effects on a 0-9 scale, GLXMA [1]: 2 | herbicidal effects on a 0-9 scale, GLXMA [2]: 0 | herbicidal effects on a 0-9 scale, ZEAMX [3]: 0 | herbicidal effects on a 0-9 scale, SINAL [4]: 0 | herbicidal effects on a 0-9 scale, AVEFA [5]: 0 | herbicidal effects on a 0-9 scale, ORYSA [6]: 0 | herbicidal effects on a 0-9 scale, LIUUT [7]: 0 | herbicidal effects on a 0-9 scale, ECHCG [8]: 0 | herbicidal effects on a 0-9 scale, BEAVA [9]: 0 | herbicidal effects on a 0-9 scale, ZEAMX [10]: 0 | herbicidal effects on a 0-9 scale, SINAL [11]: 7 | herbicidal effects on a 0-9 scale, AVEFA [12]: 0 | herbicidal effects on a 0-9 scale, ORYSA [13]: 0 | herbicidal effects on a 0-9 scale, LIUUT [14]: 2 | herbicidal effects on a 0-9 scale, ECHCG [15]: 2 | herbicidal effects on a 0-9 scale, BEAVA [16]: 4

CC(C)c1nsc(C(=O)NCc2cccs2)n1 [Example 9]
herbicidal effects on a 0-9 scale, GLXMA [1]: 2 | herbicidal effects on a 0-9 scale, GLXMA [2]: 0 | herbicidal effects on a 0-9 scale, ZEAMX [3]: 0 | herbicidal effects on a 0-9 scale, SINAL [4]: 4 | herbicidal effects on a 0-9 scale, AVEFA [5]: 0 | herbicidal effects on a 0-9 scale, ORYSA [6]: 0 | herbicidal effects on a 0-9 scale, LIUUT [7]: 0 | herbicidal effects on a 0-9 scale, ECHCG [8]: 2 | herbicidal effects on a 0-9 scale, BEAVA [9]: 0 | herbicidal effects on a 0-9 scale, ZEAMX [10]: 2 | herbicidal effects on a 0-9 scale, SINAL [11]: 7 | herbicidal effects on a 0-9 scale, AVEFA [12]: 0 | herbicidal effects on a 0-9 scale, ORYSA [13]: 0 | herbicidal effects on a 0-9 scale, LIUUT [14]: 2 | herbicidal effects on a 0-9 scale, ECHCG [15]: 5 | herbicidal effects on a 0-9 scale, BEAVA [16]: 7

CC(NC(=O)c1nsc(-c2ccccc2F)n1)c1cccs1 (racemic) [Example 57, (R/S)-5-(2-Fluorophenyl)-[1,2,4]thiadiazole-3-carboxylic acid, [1-(2-thienyl)ethyl]amide]
ABU TH rating [17]: 9 (100% effect) | AMA RE rating [18]: 7 (80-90%) | ZEA MX rating [19]: 5 (45-64%) | ALO MY rating [20]: 4 (30-44%) | IPO HE rating [21]: 7 (80-90%) | HOR VW rating [22]: 4 (30-44%) | VER PE rating [23]: 6 (65-79%) | SET VI rating [24]: 9 (100% effect) | HEL AN rating [25]: 8 (91-99%) | GAL AP rating [26]: 7 (80-90%) | CHE AL rating [27]: 4 (30-44%) | TRZ AW rating [28]: 3 (16-29%) | HOR VW rating [29]: 0 | SET VI rating [30]: 2 (6-15%) | TRZ AW rating [31]: 2 (6-15%) | ALO MY rating [32]: 3 (16-29%) | ABU TH rating [33]: 0 | AMA RE rating [34]: 4 (30-44%) | ZEA MX rating [35]: 0 | IPO HE rating [36]: 0 | VER PE rating [37]: 0 | HEL AN rating [38]: 0 | GAL AP rating [39]: 0 | CHE AL rating [40]: 1 (1-5%)
